# Laboratory results: PMC10622577, “Structural basis for stabilisation of the RAD51 nucleoprotein filament by BRCA2” (Nature Communications, 2023)
# What was measured:
# [1] = system: RAD51 NPFs on DNA capped at both ends with mSA; assay: EMSA of TR2 binding to RAD51 NPFs on mSA-capped DNA; set-up: species or system human; details: doubly-biotinylated ss- and dsDNA, mSA in 5× molar excess of biotin labels; SYBR Gold; two independent repeats
# Source text: To understand the structural basis for the association of the BRCA2 C-terminus with the RAD51 nucleoprotein filament, we sought to determine the structure of a RAD51-DNA-TR2 filament by high-resolution cryo-electron microscopy (cryoEM). […] Individual filaments within a bundle appeared to be in translational register relative to each other as it was possible to obtain well-resolved 2D classes of filament pairs (Supplementary fig. 5A, Supplementary Table 1). Filament aggregation induced by TR2 complicated picking of individual filament particles and prevented structural determination by cryoEM. We therefore sought to develop a method to prepare RAD51 NPFs in the presence of TR2 peptide without causing filament bundling. We reasoned that bundling might be alleviated by capping the DNA substrate with a bulky tag, to prevent filament aggregation by steric interference. We therefore prepared ss- and dsDNA substrates with a biotin tag at either one end or both ends, that could be bound by monomeric streptavidin (mSA) (Supplementary Fig. 5B, Supplementary Table 1).
# Fig. 2 BRCA2 TR2 induces bundling of RAD51 nucleoprotein filaments. […]
# Before electrophoresis, samples were mixed with a 0.5:1 volume of 50% (w/v) sucrose solution and analysed on a pre-run 0.5% (w/v) agarose gel in 0.5× TB buffer at 35 V for 2.5 hours at 4 °C. […]
# wild-type RAD51 NPFs = assay: EMSA of TR2 titration on wild-type RAD51 nucleoprotein filaments (NPFs); type: binding, human
# Protocol: To assess RAD51 nucleoprotein (NPF) formation, wild-type and mutant RAD51 proteins were incubated with DNA in buffer: 25 mM HEPES pH 7.5, 150 mM NaCl, 2 mM DTT, 2 mM ATP, 5 mM CaCl2 for 15 minutes at room temperature. For filament binding of the TR2 peptide or His6-MBP-TR2 protein, the RAD51 NPFs were incubated with TR2 for further 5 minutes at room temperature. For filament binding of BRC4, the BRC4 peptide was pre-mixed with RAD51 for 10 minutes at room temperature before addition of DNA. For experiments with mono-streptavidin (mSA)-capped DNA, mSA (Sigma) was added in 5× molar excess of biotin labels for 15 minutes at room temperature prior to the addition of RAD51. Concentrations are provided in figures and DNA sequences for each experiment are reported in Supplementary Table 1.
# Before electrophoresis, samples were mixed with a 0.5:1 volume of 50% (w/v) sucrose solution and analysed on a pre-run 0.5% (w/v) agarose gel in 0.5× TB buffer at 35 V for 2.5 hours at 4 °C. DNA was visualised by excitation of the fluorescent tag or, in the case of unlabelled DNA, by SYBR Gold staining. Gels were imaged in a Typhoon FLA9000 by excitation at 473 nm for fluorescein-labelled DNA or SYBR Gold-stained gels, 532 nm excitation for Cy3-labelled DNA or 635 nm excitation for Cy5-labelled DNA.
# Supplementary table 1. DNA oligos and peptides
# Oligos Size (nt) Sequence (5’ – 3’)
# D184A […] (forward), […]
sequence,measurement,setting,value
"DDQKNCKKRRALDFLSRLPLPPPVSPICTFVSPAAQKAFQPPRSCGTKY [TR2, BRCA2 TR2 peptide spanning amino acids 3260 to 3308]",TR2 binding by RAD51 NPFs on mSA-capped DNA,[1],competent to bind the TR2 peptide
same,TR2 binding to wild-type RAD51 NPFs (filament formation and mobility),"wild-type RAD51 NPFs; 25 mM HEPES pH 7.5, 150 mM NaCl, 2 mM DTT, 2 mM ATP, 5 mM CaCl2, RAD51 + DNA 15 min, then TR2 5 min, room temperature, 0.5% agarose, fluorescein-labelled 60 nt ss- or dsDNA, ssDNA performed twice, dsDNA once",enhancement of filament formation accompanied by formation of larger species of reduced electrophoretic mobility
same,bundling of TR2-bound filaments in the gel,"wild-type RAD51 NPFs; EMSA Fig. 1C, authors' response to reviewers",do not show bundling
